Measured values reported in patent publication US11897867B2, “6-phenyl-4,5-dihydropyridazin-3(2H)-one derivatives as PDE3A and PDE3B inhibitors for treating cancer” (Bayer Aktiengesellschaft, priority 2017, dated 2024).

Columns and labels:
[1] = test system: HeLa cells (cervical cancer); assay: Cell proliferation measurement (Cell Titer Glo), HeLa; format: cell-based; conditions: Homo sapiens, 72 h treatment, read-out: Anti-proliferation IC50 HeLa (Cervical cancer)
Description: (§1) The antiproliferative activity of the compounds of the general formula (I) was examined in vitro in human cancer cells. For this purpose, 1000 cells (or 500 HeLa cells) were plated in 384-well plates with appropriate growth medium and incubated at 37° C. overnight. After 24 h, the cells on the test plate were treated with the compounds of the general formula (I) as and incubated at 37° C. for 72 h. The compounds were added to the cells by means of an HP D300 digital dispenser in a 10 (or more)-step dilution series. As control, the cells were treated with vehicle (DMSO at 0.3% final concentration). After 72 h, the cells were treated with 20 μl/well of 50% CTG solution in PBS (Promega Cell Titer Glo (catalogue #G755B and G756B)) and incubated at room temperature for 10 min, and luminescence was measured by means of a VICTOR V (Perkin Elmer), in order to determine cell viability at the end of treatment. The percentage effect on cell growth and the IC50 derived therefrom were determined for each test substance using the values from untreated wells (=percent viability). The IC50 values were calculated using a 4-parameter fit.

[2] = target: T1, human full length PDE3B (Homo sapiens, UniProt Q13370); assay: PDE3B enzyme inhibition (3H-cAMP Scintillation Proximity Assay); format: biochemical; conditions: PDE3B cell extract from Sf9 cells, 60 min room temperature; read-out: Target IC50 PDE3B IC50
T1 construct: Sf9 cells overexpressing human full length PDE3B; purchased SB Drug Discovery, UK; host or cells: Sf9 cells (cell extract)
Description: The commercially available 3H-cAMP Scintillation Proximity Assay (SPA, Perkin Elmer) system was used for enzyme inhibition studies. For the determination of the in vitro effect of test substances on the PDE3B reactions 2 μl of the respective test compound solution in DMSO (serial dilutions) were placed in wells of microtiter plates (Isoplate-96/200W; Perkin Elmer). 50 μl of a dilution of PDE3B cell extract from Sf9 cells overexpressing human full length PDE3B (SB Drug Discovery, UK) in buffer A (50 mM Tris/HCl pH 7.5, 8.3 mM MgCl2, 1.7 mM EDTA, 0.2% BSA) was added. The dilution of the PDE3B cell extract was chosen such that the reaction kinetics was linear and less than 70% of the substrate was consumed (typical dilution 1:6000). The reaction was started by addition of 50 μl (0.025 μCi) of 1:2000 in buffer A w/o BSA diluted substrate [8-3H] adenosine 3′,5′-cyclic phosphate (1 μCi/μl; Perkin Elmer). After incubation at room temperature for 60 min, the reaction was stopped by addition of 25 μl of a suspension containing 18 mg/ml yttrium scintillation proximity beads (Perkin Elmer) in water. The microtiter plates were sealed and measured in a Microbeta scintillation counter (PerkinElmer Wallac). IC50 values were determined from sigmoidal curves by plotting percentage PDE3B activity vs log compound concentration.

[3] = target: T2, human full length PDE3A (Homo sapiens, UniProt Q14432); assay: PDE3A enzyme inhibition (3H-cAMP Scintillation Proximity Assay); format: biochemical; conditions: PDE3A cell extract from Sf9 cells, 60 min room temperature; read-out: Target IC50 PDE3A IC50
T2 construct: Sf9 cells overexpressing human full length PDE3A; purchased SB Drug Discovery, UK; host or cells: Sf9 cells (cell extract)
Description: The commercially available 3H-cAMP Scintillation Proximity Assay (SPA, Perkin Elmer) system was used for enzyme inhibition studies. For the determination of the in vitro effect of test substances on the PDE3A reactions 2 μl of the respective test compound solution in DMSO (serial dilutions) were is placed in wells of microtiter plates (Isoplate-96/200W; Perkin Elmer). 50 μl of a dilution of PDE3A cell extract from Sf9 cells overexpressing human full length PDE3A (SB Drug Discovery, UK) in buffer A (50 mM Tris/HCl pH 7.5, 8.3 mM MgCl2, 1.7 mM EDTA, 0.2% BSA) was added. The dilution of the PDE3A cell extract was chosen such that the reaction kinetics was linear and less than 70% of the substrate was consumed (typical dilution 1:5000). The reaction was started by addition of 50 μl (0.025 μCi) of 1:2000 in buffer A w/o BSA diluted substrate [8-3H] adenosine 3′,5′-cyclic phosphate (1 μCi/μl; Perkin Elmer). After incubation at room temperature for 60 min, the reaction was stopped by addition of 25 μl of a suspension containing 18 mg/ml yttrium scintillation proximity beads (Perkin Elmer) in water. The microtiter plates were sealed and measured in a Microbeta scintillation counter (PerkinElmer Wallac). IC50 values were determined from sigmoidal curves by plotting percentage PDE3A activity vs log compound concentration.

[4] = test system: SK-MEL-3 (melanoma); assay: Cell proliferation measurement (Cell Titer Glo), SK-MEL-3; format: cell-based; conditions: Homo sapiens, SK-MEL3, SK-MEL-3 cells, 72 h treatment, read-out: Anti-proliferation IC50 SK-MEL-3 (melanoma)
Description: as §1

T2 sequence (Q14432 whole entry): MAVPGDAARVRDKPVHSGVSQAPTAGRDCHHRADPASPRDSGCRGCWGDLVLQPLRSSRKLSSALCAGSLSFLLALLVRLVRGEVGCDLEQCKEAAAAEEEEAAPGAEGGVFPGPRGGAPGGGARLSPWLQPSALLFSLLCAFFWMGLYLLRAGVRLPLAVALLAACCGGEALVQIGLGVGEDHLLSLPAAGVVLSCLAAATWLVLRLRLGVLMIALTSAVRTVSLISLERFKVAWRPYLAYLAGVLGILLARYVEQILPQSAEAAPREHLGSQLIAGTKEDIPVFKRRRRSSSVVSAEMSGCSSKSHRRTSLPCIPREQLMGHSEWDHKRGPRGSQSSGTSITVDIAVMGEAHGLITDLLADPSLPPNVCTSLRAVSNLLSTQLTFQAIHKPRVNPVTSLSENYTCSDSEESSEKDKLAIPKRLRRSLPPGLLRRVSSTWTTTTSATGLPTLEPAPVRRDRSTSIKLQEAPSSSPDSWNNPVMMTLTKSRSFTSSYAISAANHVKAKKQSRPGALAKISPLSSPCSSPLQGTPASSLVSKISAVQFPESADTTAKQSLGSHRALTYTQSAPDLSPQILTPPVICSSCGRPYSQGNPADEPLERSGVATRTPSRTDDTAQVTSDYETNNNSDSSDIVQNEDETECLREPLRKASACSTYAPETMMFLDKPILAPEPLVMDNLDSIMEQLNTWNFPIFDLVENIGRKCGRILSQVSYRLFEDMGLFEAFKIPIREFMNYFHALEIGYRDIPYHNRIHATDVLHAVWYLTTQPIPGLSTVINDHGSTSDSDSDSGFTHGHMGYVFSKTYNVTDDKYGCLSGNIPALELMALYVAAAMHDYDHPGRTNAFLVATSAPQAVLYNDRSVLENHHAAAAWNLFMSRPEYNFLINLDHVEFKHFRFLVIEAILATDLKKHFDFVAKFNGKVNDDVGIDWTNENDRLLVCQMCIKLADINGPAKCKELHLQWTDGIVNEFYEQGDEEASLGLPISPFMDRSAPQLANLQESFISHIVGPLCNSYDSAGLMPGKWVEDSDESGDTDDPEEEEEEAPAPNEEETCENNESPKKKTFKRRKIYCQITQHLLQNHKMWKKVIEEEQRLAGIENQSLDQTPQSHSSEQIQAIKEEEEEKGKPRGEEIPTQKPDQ
T1 sequence (Q13370 whole entry): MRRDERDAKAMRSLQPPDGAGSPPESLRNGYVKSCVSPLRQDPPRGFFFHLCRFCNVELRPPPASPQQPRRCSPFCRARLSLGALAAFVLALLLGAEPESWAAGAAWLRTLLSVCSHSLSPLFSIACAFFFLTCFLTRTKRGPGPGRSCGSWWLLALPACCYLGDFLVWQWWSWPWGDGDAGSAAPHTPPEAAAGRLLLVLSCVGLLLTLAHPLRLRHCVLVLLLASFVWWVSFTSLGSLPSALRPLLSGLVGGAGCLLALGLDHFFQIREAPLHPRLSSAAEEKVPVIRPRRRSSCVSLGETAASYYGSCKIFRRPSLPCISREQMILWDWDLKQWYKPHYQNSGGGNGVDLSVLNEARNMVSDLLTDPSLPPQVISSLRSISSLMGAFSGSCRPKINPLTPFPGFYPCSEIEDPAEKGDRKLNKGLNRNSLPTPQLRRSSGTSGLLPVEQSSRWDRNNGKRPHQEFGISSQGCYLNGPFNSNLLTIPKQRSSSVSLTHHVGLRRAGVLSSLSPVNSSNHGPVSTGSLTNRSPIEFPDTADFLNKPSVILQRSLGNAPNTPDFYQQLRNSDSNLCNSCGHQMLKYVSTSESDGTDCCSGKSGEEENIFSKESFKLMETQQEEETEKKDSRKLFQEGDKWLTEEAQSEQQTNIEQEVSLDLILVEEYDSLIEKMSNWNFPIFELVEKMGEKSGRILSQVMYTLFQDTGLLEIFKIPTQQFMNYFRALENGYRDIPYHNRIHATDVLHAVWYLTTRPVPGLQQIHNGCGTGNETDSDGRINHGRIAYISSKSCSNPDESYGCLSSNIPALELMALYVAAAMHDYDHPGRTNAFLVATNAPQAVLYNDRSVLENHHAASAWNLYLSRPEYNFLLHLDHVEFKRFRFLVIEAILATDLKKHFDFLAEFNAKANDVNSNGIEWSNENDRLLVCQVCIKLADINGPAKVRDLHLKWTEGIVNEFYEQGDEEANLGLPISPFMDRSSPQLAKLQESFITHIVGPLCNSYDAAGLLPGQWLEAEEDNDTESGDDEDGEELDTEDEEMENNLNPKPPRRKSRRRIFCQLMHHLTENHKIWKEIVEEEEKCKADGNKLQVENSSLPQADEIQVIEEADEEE

| SMILES | IC50 [1] | IC50 [2] | IC50 [3] | IC50 [4] |
| --- | --- | --- | --- | --- |
| CC1CCCN1c1ccc(C2=NNC(=O)CC2)cc1C(F)(F)F (centres unmarked) [Example 20, 6-{4-[2-Methylpyrrolidin-1-yl]-3-(trifluoromethyl)phenyl}-4,5-dihydropyridazin-3(2H)-one] | 33.5 nM | 160 nM | 220 nM | 47.7 nM |
| Cc1cc(C2=NNC(=O)CC2)ccc1-c1cc(F)ccc1F [Example 98, 6-(2′,5′-difluoro-2-methyl[1,1′-biphenyl]-4-yl)-4,5-dihydropyridazin-3(2H)-one] | 12.7 nM | 120 nM | 180 nM | 64.3 nM |
| Cc1cc(C2=NNC(=O)CC2)ccc1-c1ccc(N)cc1 [Example 115, 6-(4′-amino-2-methyl[1,1′-biphenyl]-4-yl)-4,5-dihydropyridazin-3(2H)-one] | 7.87 nM | 80 nM | 47 nM | 37.3 nM |
| O=C1CCC(c2ccc(-c3cncc(C(F)(F)F)c3)c(F)c2)=NN1 [Example 29, 6-{3-fluoro-4-[5-(trifluoromethyl)pyridin-3-yl]phenyl}-4,5-dihydropyridazin-3(2H)-one] | 86.4 nM | 110 nM | 160 nM | > 100 nM |
| N#Cc1ccc(F)c(-c2ccc(C3=NNC(=O)CC3)cc2F)c1 [Example 89, 2′,6-difluoro-4′-(6-oxo-1,4,5,6-tetrahydropyridazin-3-yl)[1,1′-biphenyl]-3-carbonitrile] | 74.3 nM | 150 nM | 140 nM | > 100 nM |
| O=C1CCC(c2ccc(-c3ccc(F)c(F)c3F)c(F)c2)=NN1 [Example 39, 6-(2,2′,3′,4′-tetrafluoro[1,1′-biphenyl]-4-yl)-4,5-dihydropyridazin-3(2H)-one] | 5.25 nM | 80 nM | 82 nM | 8.4 nM |
| Cc1cc(C2=NNC(=O)CC2)ccc1-c1ccc(C#N)cc1 [Example 100, 2′-methyl-4′-(6-oxo-1,4,5,6-tetrahydropyridazin-3-yl)[1,1′-biphenyl]-4-carbonitrile] | 22.5 nM | 59 nM | 58 nM | > 100 nM |
| O=C1CCC(c2ccc(N3CC(F)(F)C3)c(C(F)(F)F)c2)=NN1 [Example 19, 6-[4-(3,3-Difluoroazetidin-1-yl)-3-(trifluoromethyl)phenyl]-4,5-dihydropyridazin-3(2H)-one] | 5.76 nM | 210 nM | 210 nM | 10.4 nM |
| Cc1cc(F)ccc1-c1ccc(C2=NNC(=O)CC2)cc1C [Example 4, 6-(4′-Fluoro-2,2′-dimethylbiphenyl-4-yl)-4,5-dihydropyridazin-3(2H)-one] | 12.5 nM | 160 nM | 420 nM | 22.8 nM |
| Cc1ccc(-c2ccc(C3=NNC(=O)CC3)cc2C)c(F)c1 [Example 94, 6-(2′-fluoro-2,4′-dimethyl[1,1′-biphenyl]-4-yl)-4,5-dihydropyridazin-3(2H)-one] | 7.01 nM | 175 nM | 190 nM | 36.9 nM |
| Cc1cc(C2=NNC(=O)CC2)ccc1-c1ccccc1C#N [Example 99, 2′-methyl-4′-(6-oxo-1,4,5,6-tetrahydropyridazin-3-yl)[1,1′-biphenyl]-2-carbonitrile] | 39.9 nM | 530 nM | 280 nM | > 100 nM |
| O=C1CCC(c2ccc(C3=CCCC3)c(F)c2)=NN1 [Example 80, 6-[4-(cyclopent-1-en-1-yl)-3-fluorophenyl]-4,5-dihydropyridazin-3(2H)-one] | 2.67 nM | 310 nM | 220 nM | 4.13 nM |
| CC1C2CC2CN1c1c(F)cc(C2=NNC(=O)CC2)cc1F (centres unmarked) [Example 17, 6-{3,5-Difluoro-4-[2-methyl-3-azabicyclo[3.1.0]hex-3-yl]phenyl}-4,5-dihydropyridazin-3(2H)-one] | 1.29 nM | 89 nM | 200 nM | 2.99 nM |
| O=C1CCC(c2cc(F)c(N3CCC(F)(F)CC3)c(F)c2)=NN1 [Example 12, 6-[4-(4,4-Difluoropiperidin-1-yl)-3,5-difluorophenyl]-4,5-dihydropyridazin-3(2H)-one] | 5.48 nM | 62 nM | 110 nM | 11.4 nM |

Other lines, results leading:

| IC50 [1] | IC50 [2] | IC50 [3] | IC50 [4] | SMILES |
| --- | --- | --- | --- | --- |
| 10.6 nM | 310 nM | 280 nM | 59.8 nM | COc1ccc(-c2ccc(C3=NNC(=O)CC3)cc2F)cc1 [Example 86, 6-(2-fluoro-4′-methoxy[1,1′-biphenyl]-4-yl)-4,5-dihydropyridazin-3(2H)-one] |
| 4 nM | 100 nM | 130 nM | 7.31 nM | Cc1ccc(-c2ccc(C3=NNC(=O)CC3)cc2F)c(F)c1 [Example 37, 6-(2,2′-difluoro-4′-methyl[1,1′-biphenyl]-4-yl)-4,5-dihydropyridazin-3(2H)-one] |
| 9.65 nM | 37 nM | 61 nM | 12.7 nM | N#Cc1ccc(-c2ccc(C3=NNC(=O)CC3)cc2F)cc1 [Example 46, 2′-fluoro-4′-(6-oxo-1,4,5,6-tetrahydropyridazin-3-yl)[1,1′-biphenyl]-4-carbonitrile] |
| 63.6 nM | 690 nM | 820 nM | > 100 nM | Cc1ccc(-c2ccc(C3=NNC(=O)CC3)cc2F)cc1C [Example 35, 6-(2-fluoro-3′,4′-dimethyl[1,1′-biphenyl]-4-yl)-4,5-dihydropyridazin-3(2H)-one] |
| 13.9 nM | 110 nM | 140 nM | 58.2 nM | Cc1cc(C2=NNC(=O)CC2)ccc1-c1cccc(F)c1 [Example 112, 6-(3′-fluoro-2-methyl[1,1′-biphenyl]-4-yl)-4,5-dihydropyridazin-3(2H)-one] |
| 7.23 nM | 50 nM | 57 nM | 9.88 nM | Cc1ccc(-c2ccc(C3=NNC(=O)CC3)cc2F)cn1 [Example 34, 6-[3-fluoro-4-(6-methylpyridin-3-yl)phenyl]-4,5-dihydropyridazin-3(2H)-one] |
| 1.55 nM | 35 nM | 90 nM | 2.12 nM | Nc1cc(-c2ccc(C3=NNC(=O)CC3)cc2F)ccc1Cl [Example 9, 6-(3′-Amino-4′-chloro-2-fluorobiphenyl-4-yl)-4,5-dihydropyridazin-3(2H)-one] |
| 37.5 nM | 140 nM | 140 nM | 47.6 nM | O=C1CCC(c2ccc(-c3cncnc3)c(F)c2)=NN1 [Example 40, 6-[3-fluoro-4-(pyrimidin-5-yl)phenyl]-4,5-dihydropyridazin-3(2H)-one] |
| 60.2 nM | 89 nM | 100 nM | > 100 nM | Nc1cc(-c2ccc(C3=NNC(=O)CC3)cc2F)ccn1 [Example 28, 6-[4-(2-aminopyridin-4-yl)-3-fluorophenyl]-4,5-dihydropyridazin-3(2H)-one] |
